These results are taken from patent publication US20140066385A1, “METHOD FOR TREATING CANCER BY COMBINED USE OF DRUGS” (Astellas Pharma Inc., priority 2011, published 2014).

The test system of this assay is human hormone-resistant prostatic cancer (PC-3). Kind of assay: Example 9: FK330 with paclitaxel in PC-3 tumor-bearing mice. In kind it is in vivo, nude mice. As to conditions: FK330 100 mg/kg bid p.o. + paclitaxel 10 mg/kg/day i.v. multicycle. How it is done:
The dose of FK330 is expressed in terms of the weight of a simple substance (non-hydrate). Paclitaxel was purchased from LC Laboratories, Inc. (Woburn, Mass., USA), and was used as paclitaxel.
FK330 was suspended (20 mg/mL) in a 0.5% aqueous methyl cellulose solution (0.5% MC), and was orally administered. Paclitaxel was prepared into a stock solution at 10 mg/mL with an ethanol/cremophor solution (mixed at 1:1), and then the stock solution was diluted to 1 mg/mL with physiological saline for injection (Otsuka Pharmaceutical Group) immediately before administration and was intravenously administered through the tail vein.
Human hormone-resistant prostatic cancer-derived PC-3 (CRL-1435) was obtained from American Type Culture Collection (VA, USA). […]
The body weight and the tumor diameter, determined by using a digital caliper, were measured twice a week. The tumor volume was calculated from the calculation formula for ellipsoid volume of (major axis×[minor axis]^2×0.5).
The results are expressed as the mean value (Mean)±standard error (SEM). […] Using the actual measured values of the tumor volume at each measurement time point, an unpaired statistical test (Student's t-test) of the difference between two groups was carried out between a single administration group and a combination use group. […]

For the compound `O=C(/C=C/c1ccc(Cl)cc1)N[C@@H](Cc1ccccn1)C(=O)NCC(=O)N1CCC(Oc2cc(C(F)(F)F)ncn2)CC1` [FK330, N^2-[(2E)-3-(4-chlorophenyl)-2-propenoyl]-N-[2-oxo-2-(4-{[6-(trifluoromethyl)pyrimidin-4-yl]oxy}piperidin-1-yl)ethyl]-3-pyridin-2-yl-L-alaninamide], the “tumor volume reduction ratio compared with the paclitaxel-only group” value is, setting by setting: (Day 30, P<0.05) 63.1%; (Day 55, P<0.001) 72.1%.
